Reference: PubChem BioAssay AID1918958 (Molecular Pharmacology Branch, DTP, NCI, 2023)

System: NCI-H196 complex spheroid viability
Experiment: Anticancer human tumor NCI-H196 cell line growth inhibition [LSD1];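 note: spheroids exposed to agents for 7 days before readout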;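 for viability, T/C: 100% = DMSO vehicle control viability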
Conditions: for IC50: curve of first compound; for viability, T/C: stronger effect = lower value
Outline: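 Multicellular complex spheroids of tumor cells with human endothelial cells (HUVEC) and mesenchymal stem cells; the LSD1 inhibitor iadademstat was combined with standard-of-care or investigational agents. Top concentration at or near clinical Cmax, half-log dilutions; final DMSO ≤0.25%.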

SMILES: CC(C)c1c(-c2ccccc2)nc2c(C#N)c[nH]n2c1=O + NC1CCC(NC2CC2c2ccccc2)CC1
- IC50 (second compound 0.1 µM): > 10 µM
- IC50 (second compound 0.316 µM): > 10 µM
- IC50 (second compound 1 µM): > 10 µM
- IC50 (second compound 3.16 µM): > 10 µM
- IC50 (second compound 10 µM): > 10 µM
- viability, T/C (second compound 0.1 µM, first compound 0.0316 µM): 104%
- viability, T/C (second compound 0.1 µM, first compound 0.1 µM): 105%
- viability, T/C (second compound 0.1 µM, first compound 0.316 µM): 114%
- viability, T/C (second compound 0.1 µM, first compound 1 µM): 94.2%
- viability, T/C (second compound 0.1 µM, first compound 3.16 µM): 90.7%
- viability, T/C (second compound 0.1 µM, first compound 10 µM): 95.6%
- viability, T/C (second compound 0.316 µM, first compound 0.0316 µM): 101%
- viability, T/C (second compound 0.316 µM, first compound 0.1 µM): 101%
- viability, T/C (second compound 0.316 µM, first compound 0.316 µM): 107%
- viability, T/C (second compound 0.316 µM, first compound 1 µM): 98.2%
- viability, T/C (second compound 0.316 µM, first compound 3.16 µM): 90%
- viability, T/C (second compound 0.316 µM, first compound 10 µM): 84.9%
- viability, T/C (second compound 1 µM, first compound 0.0316 µM): 97.4%
- viability, T/C (second compound 1 µM, first compound 0.1 µM): 93.3%
- viability, T/C (second compound 1 µM, first compound 0.316 µM): 96.4%
- viability, T/C (second compound 1 µM, first compound 1 µM): 94.1%
- viability, T/C (second compound 1 µM, first compound 3.16 µM): 91.7%
- viability, T/C (second compound 1 µM, first compound 10 µM): 90.7%
- viability, T/C (second compound 3.16 µM, first compound 0.0316 µM): 97.7%
- viability, T/C (second compound 3.16 µM, first compound 0.1 µM): 104%
- viability, T/C (second compound 3.16 µM, first compound 0.316 µM): 98.5%
- viability, T/C (second compound 3.16 µM, first compound 1 µM): 93.4%
- viability, T/C (second compound 3.16 µM, first compound 3.16 µM): 94.3%
- viability, T/C (second compound 3.16 µM, first compound 10 µM): 88%
- viability, T/C (second compound 10 µM, first compound 0.0316 µM): 98.7%
- viability, T/C (second compound 10 µM, first compound 0.1 µM): 97.1%
- viability, T/C (second compound 10 µM, first compound 0.316 µM): 99.1%
- viability, T/C (second compound 10 µM, first compound 1 µM): 102%
- viability, T/C (second compound 10 µM, first compound 3.16 µM): 83.4%
- viability, T/C (second compound 10 µM, first compound 10 µM): 89%
